From patent US11891365B2, “3-alkyl-4-amido-bicyclic [4,5,0] hydroxamic acids as HDAC inhibitors” (Valo Health, Inc., priority 2015, dated 2024)

target: T1, Full length human recombinant HDAC6 protein (Homo sapiens, UniProt Q9UBN7); assay: In vitro histone deacetylase assay: enzymatic HDAC6 electrophoretic mobility shift assay; type: biochemical; settings: 1 nM enzyme, 2 μM peptide substrate RHKK(Ac)-NH2, 25° C., 12 concentrations; read-out: Inhibitory Concentration (IC50) Values against HDAC6, Activity Range
T1 sequence (Q9UBN7 1-1215): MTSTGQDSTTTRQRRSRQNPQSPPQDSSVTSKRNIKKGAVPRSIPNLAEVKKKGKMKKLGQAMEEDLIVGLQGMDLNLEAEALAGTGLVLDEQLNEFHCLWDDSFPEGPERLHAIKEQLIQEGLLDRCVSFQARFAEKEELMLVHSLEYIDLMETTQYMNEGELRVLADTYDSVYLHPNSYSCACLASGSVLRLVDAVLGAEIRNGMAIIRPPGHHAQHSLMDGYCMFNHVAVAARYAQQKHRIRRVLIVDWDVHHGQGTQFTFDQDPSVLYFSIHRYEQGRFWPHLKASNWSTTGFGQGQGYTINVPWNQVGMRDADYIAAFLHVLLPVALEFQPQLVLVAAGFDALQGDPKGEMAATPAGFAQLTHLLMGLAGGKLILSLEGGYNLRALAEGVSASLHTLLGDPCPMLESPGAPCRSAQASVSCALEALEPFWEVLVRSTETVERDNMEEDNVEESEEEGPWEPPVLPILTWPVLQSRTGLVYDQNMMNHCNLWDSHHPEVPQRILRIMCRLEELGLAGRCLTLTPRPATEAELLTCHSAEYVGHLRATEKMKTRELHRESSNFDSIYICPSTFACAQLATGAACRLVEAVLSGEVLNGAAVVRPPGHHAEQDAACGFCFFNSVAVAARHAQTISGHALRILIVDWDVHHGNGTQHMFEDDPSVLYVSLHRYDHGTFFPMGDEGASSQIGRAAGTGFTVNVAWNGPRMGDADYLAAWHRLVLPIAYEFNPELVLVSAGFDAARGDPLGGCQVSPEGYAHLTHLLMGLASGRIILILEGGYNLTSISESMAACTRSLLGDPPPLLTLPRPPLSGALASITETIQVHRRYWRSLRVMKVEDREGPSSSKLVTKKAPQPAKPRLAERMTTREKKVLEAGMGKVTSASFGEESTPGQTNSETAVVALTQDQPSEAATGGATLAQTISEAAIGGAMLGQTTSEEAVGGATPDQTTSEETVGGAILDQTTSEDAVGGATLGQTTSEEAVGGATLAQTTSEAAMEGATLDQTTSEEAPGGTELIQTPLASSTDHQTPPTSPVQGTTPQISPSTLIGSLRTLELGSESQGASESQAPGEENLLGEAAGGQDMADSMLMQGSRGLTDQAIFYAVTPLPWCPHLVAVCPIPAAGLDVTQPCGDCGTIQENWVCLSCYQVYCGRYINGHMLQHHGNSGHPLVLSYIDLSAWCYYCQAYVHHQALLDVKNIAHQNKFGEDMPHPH

IC50, ≤ 100 nM:
C[C@H]1COc2cc(C(=O)NO)ccc2CN1C(=O)C1COC1 [(S)-N-hydroxy-3-methyl-4-(oxetane-3-carbonyl)-2,3,4,5-tetrahydrobenzo[f][1,4]oxazepine-8-carboxamide]
COc1cccc(C2(C(=O)N3CCOc4cc(C(=O)NO)ccc4C3)CC2)c1 [N-hydroxy-4-(1-(3-methoxyphenyl)cyclopropane-1-carbonyl)-2,3,4,5-tetrahydrobenzo[f][1,4]oxazepine-8-carboxamide]
C[C@H]1COc2cc(C(=O)NO)ccc2CN1C(=O)C1(C)CCCO1 (stereo partly drawn) [(3S)-N-hydroxy-3-methyl-4-(2-methyltetrahydrofuran-2-carbonyl)-2,3,4,5-tetrahydrobenzo[f][1,4]oxazepine-8-carboxamide]
CC1CC(C(=O)N2Cc3ccc(C(=O)NO)cc3OC[C@@H]2C)CC(C)O1 (stereo partly drawn) [(3S)-4-(2,6-dimethyltetrahydro-2H-pyran-4-carbonyl)-N-hydroxy-3-methyl-2,3,4,5-tetrahydrobenzo[f][1,4]oxazepine-8-carboxamide]
C[C@@H]1c2cc(C(=O)NO)ccc2OCCN1C(=O)C1CCOCC1 [(R)-N-hydroxy-5-methyl-4-(tetrahydro-2H-pyran-4-carbonyl)-2,3,4,5-tetrahydrobenzo[f][1,4]oxazepine-7-carboxamide]
O=C(NO)c1ccc2c(c1)OCCN(C(=O)C1(Cn3ccnc3)CC1)C2 [4-(1-((1H-imidazol-1-yl)methyl)cyclopropane-1-carbonyl)-N-hydroxy-2,3,4,5-tetrahydrobenzo[f][1,4]oxazepine-8-carboxamide]

IC50, 100 to 500 nM:
O=C(NO)c1ccc2c(c1)OCCN(C(=O)C1(Oc3ccccc3)CC1)C2 [N-hydroxy-4-(1-phenoxycyclopropane-1-carbonyl)-2,3,4,5-tetrahydrobenzo[f][1,4]oxazepine-8-carboxamide]
CC(C)(C)OC(=O)N1CCC2(CC1)OC(C(=O)N1CCOc3cc(C(=O)NO)ccc3C1)c1ccccc12 (stereo not drawn) [tert-butyl 3-(8-(hydroxycarbamoyl)-2,3,4,5-tetrahydrobenzo[f][1,4]oxazepine-4-carbonyl)-3H-spiro[isobenzofuran-1,4′-piperidine]-1′-carboxylate]
O=C(NO)c1ccc2c(n1)OCCN(C(=O)C1CCCCC1)C2 [4-(cyclohexanecarbonyl)-N-hydroxy-2,3,4,5-tetrahydropyrido[3,2-f][1,4]oxazepine-8-carboxamide]
O=C(NO)c1ccc2c(c1)OCCN(C(=O)c1ccc3occc3c1)C2 [4-(benzofuran-5-carbonyl)-N-hydroxy-2,3,4,5-tetrahydrobenzo[f][1,4]oxazepine-8-carboxamide]
O=C(NO)c1ccc2c(c1)OCCN(C(=O)C(c1ccccc1)n1cnnn1)C2 (stereo not drawn) [N-hydroxy-4-(2-phenyl-2-(1H-tetrazol-1-yl)acetyl)-2,3,4,5-tetrahydrobenzo[f][1,4]oxazepine-8-carboxamide]

IC50, > 500 nM:
Cn1cc(C(=O)N2CCOc3cc(C(=O)NO)ccc3C2)ccc1=O [N-hydroxy-4-(1-methyl-6-oxo-1,6-dihydropyridine-3-carbonyl)-2,3,4,5-tetrahydrobenzo[f][1,4]oxazepine-8-carboxamide]
